These results are taken from publication PMC5672024, “Selective Glucocorticoid Receptor Properties of GSK866 Analogs with Cysteine Reactive Warheads” (Frontiers in Immunology, 2017).

One may read the inhibition as the share of the control response that was lost under treatment. A high value points to a strong effect.

Test [1] relates to TNF-induced NFκB reporter gene activity in L929sA cells. As to the kind of experiment: p(NFκB)3-50luc reporter gene assay with TNF (NFκB transrepression). Type of test: cell-based. As to conditions: TNF 2,500 IU/ml; for inhibition at 0.01 µM: L929sA, 10 nM compound. How it is done: (§1) In order to compare transactivation and transrepression potencies of the different synthesized GSK866 analogs, we performed GRE- and NFκB-luciferase-dependent reporter gene studies in stable transfected cell lines, as previously described ([3], [8]). HaCat cells expressing p(GRE)2 50-Luc and L929sA cells expressing p(GRE)250-Luc or p(NFκB)350-Luc were cultured in DMEM medium with 1% L-glutamine, supplemented with 10% feral bovine serum (FBS), 100 µg/ml streptomycin, and 100 IU/mL penicillin in a humidified 5% CO2 atmosphere. Cells were passaged every 2 days at a dilution of 1:6. Reporter gene cells were plated at a density of 0.5 × 10^5 cells/well in 24 well plates and grown overnight. p(GRE)250-Luc-dependent reporter gene cells were treated with solvent (DMSO) or compound (100 fM, 1 nM, 10 nM, 100 nM, and 1 µM) for 6 h, whereas in case of p(NFκB)350-Luc, TNF (2,500 IU/mL) was added 2 h following compound treatment. After incubation with the compounds, medium was removed and cells were washed twice with PBS followed by adding 100 µl of 1× lysis buffer (0.2 M K2HPO4, 0.2 M KH2PO4, Triton X-100, pH 7.6). 25 µl of lysate was assayed for luciferase activity by adding 50 µl of luciferase assay substrate (1 mM luciferin or luciferin salt, 3 mM ATP, and 15 mM MgSO4 in 30 mM HEPES buffer, pH 7.8) followed by 10 s mixing and measuring 1 s bioluminescence using an Envision multilabel reader (Perkin Elmer).
(§2) Figure 3 Selective glucocorticoid receptor agonist GSK866 analogs UAMC-1217, UAMC-1218 but not UAMC-1158 and UAMC-1159 elicit selective glucocorticoid receptor-transactivation and NFκB-transrepression properties. Glucocorticoid response element (GRE)- and NFκB-luciferase-dependent reporter gene assays were performed in L929sA and HaCat reporter cells which were stably transfected with, respectively, p(NFκB)3-50luc or p(GRE)2-50-luc constructs. For p(GRE)2-50-luc reporter assays, cells were solvent-treated or induced with different concentrations of Dex (A), Dex-mesylate (Dex-Mes) (A), SEGRA GSK866 (C) or analogs UAMC-1158 (D), UAMC-1159 (E), UAMC-1217 (F), and UAMC-1218 (G) as indicated for a total exposure time of 6 h, whereas cells were cotreated for TNF (2,500 IU/ml) in the last 4 h for p(NFkB)3-50luc reporter assays (B–G). Corresponding lysates were assayed for luciferase activities and normalized for protein content as described in the Section “Materials and Methods.” Promoter activities are expressed as relative induction factor (± standard deviation) i.e., the ratio of expression levels recorded either at induced and non-induced conditions, with the latter taken to be 1.

The subject of another test is recombinant GR-LBD (hGR). As to the kind of experiment: Mass spectrometry of tryptic peptides of recombinant GR-LBD after ligand incubation (covalent binding). More on the design: species or system human. As to conditions: 2 h at 37°C, trypsin digestion, LC-MS/MS.
Another test relates to GILZ/TSC22D3 mRNA. As to the kind of experiment: qPCR of GR target gene GILZ/TSC22D3 in HaCat cells. It is filed as cell-based. Conditions: 6 h, 10, 100 or 1,000 nM, compared with Dex. How it is done:
qPCR was performed using the GoTaq qPCR Master Mix (Promega) according to manufacturer’s instructions. In short, a 25 µl reaction volume mix per sample was prepared containing 12.5 µl GoTaq qPCR Master Mix, 0.4 µM forward and reverse primer, and nuclease-free water. We used the Rotor-Gene Q qPCR machine of Qiagen with following PCR program: 95°C for 2 min, 40 cycli denaturation (95°C, 15 s) and annealing/extension (60°C, 30 s), and dissociation (60–95°C). […] Each sample was run in triplicate. The median value of the triplicates were taken to calculate the deltaCt-values using GAPDH as the normalization gene.
(A) QPCR assays was performed against the GR target gene GILZ/TSC22D3 in HaCat cells treated for 6 h with different concentrations 10, 100 or 1,000 nM Dex or UAMC-1217. Bar graph plot represents the relative mRNA levels of GILZ/TSC22D3 upon Dex or UAMC-1217 treatment. (B) QPCR assays was performed against the TNF-inducible inflammatory gene interleukin-6 (IL6) in HaCat cells treated for 6 h with different concentrations 10, 100, or 1,000 nM Dex or UAMC-1217 either or not, cotreated for the last 4 h with TNF (2,500 IU/ml) as indicated in panel (B). […] Significant mean differences versus control setups panel (A) or TNF treated setup panel (B) are marked as *** (P < 0.001), **(P < 0.01), * (P < 0.05) and were determined by one-way ANOVA (Dunnetts Posttest).

The subject of a further test is GR. Description: Cell-based GR ligand-binding competition assay with [3H]-dexamethasone. As to conditions: from IC50 values of ligand displacement assays; ref [14].
The subject of test [2] is GR transactivation, p(GRE)2-50-luc reporter in HaCat cells. As to the kind of experiment: p(GRE)2-50-luc reporter gene assay (GR transactivation). It is filed as cell-based. As to conditions: 6 h, 10 nM. How it is done:
as §1, §2
A general note: Reporter assays use an easily measured gene product as a stand-in for the process of interest.

Method for recombinant GR-LBD (hGR): Recombinant His6-MBP-mCaspase3 site-LBD-hGR was expressed in the Escherichia coli strain BL21codon + pICA2 that was transformed with the corresponding pLHM36LBD-hGR plasmid and in which expression was induced by Isopropyl β-D-1-thiogalactopyranoside (IPTG) under control of a pL-promotor. The transformed bacteria were grown in Luria Bertani medium supplemented with ampicillin (100 µg/ml) and kanamycin (50 µg/ml) overnight at 28°C before 1/100 inoculation in 12 × 0.5 l provided with Luria Bertani medium supplemented with ampicillin (100 µg/ml) and 1% glycerol in a shaker incubator. The cells were grown to an optical density at AU 600 nm of 0.65, transferred to 20°C and expression was induced by addition of 1 mM IPTG overnight. Cells were then harvested and frozen at −20°C. […] After thawing, the cells were re-suspended at 3 ml/g in cold 20 mM Tris-HCl pH 7.4, 200 mM NaCl, 1 mM EDTA, 1 tablet complete protease inhibitor cocktail from Roche/50 ml, and 10 mM β-mercaptoethanol. The cytoplasmic fraction was prepared by sonication of the cells on ice and isolated by centrifugation at 18,000 × g for 30 min. All further purification steps were conducted at 4°C. The clear supernatant was applied to an amylase column (BioLabs, XK26 × 20, 100 ml), equilibrated with 20 mM Tris–HCl pH 7.4, 200 mM NaCl, 1 mM EDTA, and 10 mM β-mercaptoethanol. The column was eluted with 20 mM Tris–HCl pH 7.4, 200 mM NaCl, 1 mM EDTA, 10 mM maltose, and 10 mM β-mercaptoethanol. […] Recombinant purified His-MBP-DEVD-GR-LBD fusion protein was dissolved at a concentration of 1 mg in 1.7 ml PBS buffer.
Each aliquot was incubated 2 h at 37°C. […] 120 µl of each sample was loaded onto a spin column and the flow-through was collected (1,500 × g, 2 min). Trypsin (5 µl of 20 mM stock solution) was added, and the samples were incubated 20 h at 37°C. Then, 0.1% FA (formic acid) (41.5 µl) and 20 mM TCEP in 0.1% FA (18.5 µl, 5.7 mg TCEP/ml) were added [final volume = 185 µl, final concentration TCEP = 2 mM, 1 µg material/2.5 μl], and the samples were subjected to LC–MS/MS analysis.
The obtained peptide mixtures were introduced onto an LC–MS/MS system; the Ultimate 3000 RSLC nano (Dionex, Amsterdam, The Netherlands) in-line connected to an LTQ-Orbitrap Velos (Thermo Fisher Scientific, Bremen, Germany). The sample mixture was loaded on a trapping column [made in-house, 100 µm internal diameter (I.D.) × 20 mm, 5 µm C18 beads (Reprosil-HD, Dr. Maisch)]. After back flushing from the trapping column, the sample was loaded on a reverse-phase column [made in-house, 75 µm I.D. × 150 mm, 5 µm C18 beads (Reprosil-HD, Dr. Maisch)].
The mass spectrometer was operated in data-dependent mode, automatically switching between MS and MS/MS acquisition for the 10 most abundant peaks in a given MS spectrum. […]

In test [1], `C[C@@H]1C[C@H]2[C@@H]3CCC4=CC(=O)C=C[C@]4(C)[C@@]3(F)[C@@H](O)C[C@]2(C)[C@@]1(O)C(=O)CO` [Dex, Dexamethasone, reference compound] yielded an inhibition at 0.01 µM of 40 to 45%.

Turning to `CCN(C[C@@](O)(CNC(=O)c1cnn(-c2ccc(F)cc2)c1N)C(F)(F)F)C(=O)c1c(Cl)ccc(NC(=O)CCl)c1Cl` [UAMC-1217], the figures for the “Modifications: GR-LBD cysteine-containing peptide covalently bound” value with recombinant GR-LBD (hGR) and in the test on recombinant GR-LBD (hGR) (listed as 1217) were “Cys-622” and “Peptide 615–633 → C622”, respectively. Further, in the test on GILZ/TSC22D3 mRNA, the “GILZ/TSC22D3 gene expression” value is listed as “reduced transactivation effects”. In addition, the “fold lower GR-LBD affinity versus GSK866” value in the test on GR is “approx. 5 fold”. Besides, the “GR transactivation in GRE-luc reporter at 10 nM” value in test [2] is on record as “significantly reduced GR transactivation to levels below transactivation observed with 10 nM of Dex”. The molecule also had an inhibition at 0.01 µM in test [1] of about 95%. Moreover, the “NFκB transrepression in NFκB-luc reporter” value in test [1] (dose range) is given as “dose-dependent NFκB-transrepression effects”.
